Results on 4 compounds are retold here after article PMC2364086, “Metabolism and growth inhibition of four retinoids in head and neck squamous normal and malignant cells” (British Journal of Cancer, 2001).

One data set concerns UM-SCC-14C. Briefly: Retinoid metabolism / turnover rate, HPLC. On the set-up: Metabolites Medium: dose or concentration left out as unconfirmed. As to conditions: for Metabolites Medium: UM-SCC-14C medium; for Metabolism (turnover rate) Mean: 24 h. From the text:
(§1) Retinoic acid is an active metabolite of retinol (ROL, vitamin A) that plays an important role in growth and differentiation of a variety of cell types (Gudas et al, 1994). […] This is a whitish and reddish plaque in the epithe- lial lining in the oral cavity that have a relatively high risk to become malignant. […] One impor- tant route of ATRA metabolism consists of hydroxylation at posi- tion 4 of the cyclohexenyl ring to form 4-hydroxy-RA, which is readily oxidized to 4-oxo-RA. Other metabolic pathways of ATRA include isomerization, decarboxylation and glucuronidation processes (Rockley et al, 1980; Roberts et al, 1980; Sass et al, 1994). In vitro, 4-hydroxylation of ATRA is mediated by a cytochrome P450 (CYP)-dependent mono-oxogenase system that requires NAPDH and oxygen (Roberts et al, 1980). The present study was undertaken to investigate to what extent a panel of retinoids, including 13cRA, is able to inhibit growth of HNSCC cells and cultures of normal oral keratinocytes (OKC). […] After binding of retinoids to retinoic acid receptors (RARs and RXRs) dimers are formed that are able to regulate the expression of genes involved in growth and differentiation. We compared the metabolism and level of growth inhibition of 13cRA with that of ATRA, 9cRA and retinol in four HNSCC cell lines and normal oral keratinocyte cultures (OKC).

Data set [1] concerns normal oral keratinocyte cultures (OKC). Briefly: Retinoid metabolism / turnover rate, HPLC. Details: Metabolites Medium: dose or concentration left out as unconfirmed.
From the text: as §1

For the next data set, the system named is UM-SCC-35R. As to the kind of experiment: Retinoid metabolism / turnover rate, HPLC. Details: Metabolites Medium: dose or concentration left out as unconfirmed. As to conditions: for Metabolism (turnover rate) Mean: 24 h.
From the text: as §1

The next data set relates to UM-SCC-22A. Briefly: Retinoid metabolism / turnover rate, HPLC. Details: Metabolites Medium: dose or concentration left out as unconfirmed. As to conditions: for Metabolites Medium: UM-SCC-22A medium; for Metabolism (turnover rate) Mean: 24 h.
From the text: as §1

A further data set has as its system CYP26. Details: method as in Sonneveld et al, 1998. Particulars: ref Sonneveld et al, 1998; cited from earlier work.
A further data set relates to UM-SCC-35. As to the kind of experiment: Retinoid metabolism / turnover rate, HPLC. Particulars: for Metabolites Pellet: UM-SCC-35 cell pellet.
From the text: as §1

Another data set relates to oral leukoplakia. Particulars: ref Koch, 1978; cited from earlier work.
The mark [2] stands for this setting: OKC, exposed, decrease in medium and cells between 4 and 24 h.
[3] abbreviates: 72 h exposure, 1 mM retinoid, HPLC.

Regarding `CC1=C(/C=C/C(C)=C\C=C\C(C)=C\C(=O)O)C(C)(C)CCC1` [9cRA, 9-cis-RA], the “Metabolites Medium” value in the data set with UM-SCC-14C (72 h exposure, HPLC) was “a,b”; in the data set on UM-SCC-35R (UM-SCC-35R medium, 72 h exposure, HPLC) it was “a,b”; in the data set on UM-SCC-22A (72 h exposure, HPLC), “a,b”; in the data set on UM-SCC-35 (UM-SCC-35 medium, 72 h exposure, 1 mM retinoid, HPLC), “a,b,c”. In addition, the “Isomerization to other RA isomers” value is reported as “up to 5%” in the data set on UM-SCC-14C (UM-SCC-14C, ATRA to 13cRA, 13cRA to ATRA, 9cRA to ATRA and 13cRA); “up to 5%” in data set [1] (OKC, ATRA to 13cRA, 13cRA to ATRA, 9cRA to ATRA and 13cRA); “up to 5%” in the data set with UM-SCC-22A (UM-SCC-22A, ATRA to 13cRA, 13cRA to ATRA, 9cRA to ATRA and 13cRA). The “Metabolism (turnover rate) Mean” value in data set [1] (setting [2]) is 12.0 pmol per mg protein per hour. Further, the “Metabolites Pellet” value was “b (between 10 and 15 min)” in the data set on UM-SCC-35R (UM-SCC-35R cell pellet, 72 h exposure, HPLC); “b (between 10 and 15 min)” in the data set with UM-SCC-35 (setting [3]). Moreover, the “Metabolism by CYP26” value with CYP26 is “can not metabolize”.

In the case of `CC1=C(/C=C/C(C)=C/C=C/C(C)=C\C(=O)O)C(C)(C)CCC1` [13cRA, 13-cis-retinoic acid], the “Isomerization to other RA isomers” value is given as “up to 10%” in the data set with UM-SCC-14C (human, 1 µM); “up to 10%” in data set [1] (human, 1 µM); “up to 10%” in the data set with UM-SCC-22A (human, 1 µM). The “Metabolism (turnover rate) Mean” value with UM-SCC-14C (human, 1 µM) was 78.7 pmol per mg protein per hour; in data set [1] (human, 24 h, 1 µM), 38.8 pmol per mg protein per hour; in the data set with UM-SCC-35R (human, 1 µM) it was 6.9 pmol per mg protein per hour; in the data set with UM-SCC-22A (human, 1 µM), 154.1 pmol per mg protein per hour; with UM-SCC-35 (human, 24 h, 1 µM) it was 949.5 pmol per mg protein per hour. Further, the “Metabolites Pellet” value in the data set on UM-SCC-14C (human, 72 h, 1 µM) is given as “d2”; in data set [1] (human, 72 h, 1 µM) it was “d2”; in the data set on UM-SCC-35R (human, 72 h, 1 µM) it was “b,d2”; in the data set on UM-SCC-22A (human, 72 h, 1 µM), “d2”. Further, the “Metabolism by CYP26” value with CYP26 is “can not metabolize”.

On to `CC1=C(/C=C/C(C)=C/C=C/C(C)=C/C(=O)O)C(C)(C)CCC1` [ATRA, all-trans-retinoic acid], for which the “Isomerization to other RA isomers” value in the data set with UM-SCC-14C (human, 1 µM) was “up to 10%”; in data set [1] (human, 1 µM), “up to 10%”; in the data set on UM-SCC-22A (human, 1 µM), “up to 10%”. The “Metabolism (turnover rate) Mean” value with UM-SCC-14C (human, 1 µM) was 13.3 pmol per mg protein per hour; in data set [1] (human, 24 h, 1 µM), 14.8 pmol per mg protein per hour; in the data set on UM-SCC-35R (human, 1 µM) it was 52.7 pmol per mg protein per hour; in the data set on UM-SCC-22A (human, 1 µM), 104.8 pmol per mg protein per hour; in the data set with UM-SCC-35 (human, 24 h, 1 µM), 1,016.0 pmol per mg protein per hour. The “Metabolism by CYP26” value in the data set on CYP26 was “highly substrate (ATRA) specific”. In the data set on UM-SCC-35 (human, 24 h, 1 µM), the Major metabolite is recorded as 4-OH-RA. For the same compound, in the data set on oral leukoplakia, the “Proportion of leukoplakia patients in whom active” value was 59%.

Turning to `CC1=C(/C=C/C(C)=C/C=C/C(C)=C/CO)C(C)(C)CCC1` [ROL, retinol], in the data set on UM-SCC-14C (UM-SCC-14C), the “Formation of ATRA after exposure” value is given as “relatively high formation of ATRA”. Besides, the “Metabolites Pellet” value was “d1” in the data set with UM-SCC-14C (UM-SCC-14C cell pellet, 72 h exposure, HPLC); “d1” in data set [1] (OKC cell pellet, 72 h exposure, HPLC); “d1” in the data set on UM-SCC-22A (UM-SCC-22A cell pellet, 72 h exposure, HPLC); “c1” in the data set on UM-SCC-35 (setting [3]). Further, the “Metabolites Medium” value with UM-SCC-14C (72 h exposure, HPLC) is “d1”; in data set [1] (OKC medium, 72 h exposure, HPLC) it was “d1”; in the data set on UM-SCC-22A (72 h exposure, HPLC) it was “d1”. For the same compound, in data set [1] (setting [2]), the “Metabolism (turnover rate) Mean” value is on record as 98.7 pmol per mg protein per hour. The “Formation of other retinoids after exposure” value in the data set on UM-SCC-35R (UM-SCC-35R) and in the data set with UM-SCC-35 (UM-SCC-35) was “no or very small amounts of other retinoids” each time.
